Results published in ChEMBL document CHEMBL3621201, “Improving the Selectivity of Engineered Protease Inhibitors: Optimizing the P2 Prime Residue Using a Versatile Cyclic Peptide Library” (J Med Chem, 2015).
Activity calls are given as the source filed them. No cut-off for these calls is given here. Bridge positions count the residues as written; N and C are the ends. Square brackets hold non-standard residues; d marks the D form. Peptide text beside a SMILES is read from it. Bip = N[C@@H](Cc1ccc(-c2ccccc2)cc1)C(=O)O

How the values were obtained:
[1] = molecular target: Serine protease 1 (Homo sapiens) (UniProt P07477); test: Inhibition of beta-trypsin (unknown origin) at 25 nM using Bz-FVRpNA substrate by spectrophotometry method
Chain of Serine protease 1 (Homo sapiens) (P07477 whole entry): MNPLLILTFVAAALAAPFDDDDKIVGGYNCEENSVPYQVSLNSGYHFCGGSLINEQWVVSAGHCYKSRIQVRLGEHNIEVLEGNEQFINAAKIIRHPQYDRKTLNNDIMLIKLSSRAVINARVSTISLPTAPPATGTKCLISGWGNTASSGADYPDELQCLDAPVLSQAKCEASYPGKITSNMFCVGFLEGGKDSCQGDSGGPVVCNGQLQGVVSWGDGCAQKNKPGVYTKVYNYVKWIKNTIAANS

Kallikrein-4 = Kallikrein-4 (Homo sapiens, UniProt Q9Y5K2); test: Inhibition of KLK4 (unknown origin) expressed in Sf9 cells at 25 nM using FVQRpNA substrate by spectrophotometry method
Chain of Kallikrein-4 (Q9Y5K2 whole entry): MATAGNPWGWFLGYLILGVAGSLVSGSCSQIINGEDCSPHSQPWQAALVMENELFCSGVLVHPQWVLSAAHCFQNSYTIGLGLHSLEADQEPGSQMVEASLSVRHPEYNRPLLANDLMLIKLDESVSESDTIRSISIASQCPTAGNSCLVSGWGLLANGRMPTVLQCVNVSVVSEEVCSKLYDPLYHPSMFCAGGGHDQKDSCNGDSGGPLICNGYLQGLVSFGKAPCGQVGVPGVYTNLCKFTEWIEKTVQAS

[2] = molecular target: Coagulation factor IX (Homo sapiens) (UniProt P00740); test: Inhibition of factor 9a-beta (unknown origin) at 25 uM using Ac-QGRpNA substrate by spectrophotometry method
Chain of Coagulation factor IX (Homo sapiens) (P00740 47-191 limits assumed): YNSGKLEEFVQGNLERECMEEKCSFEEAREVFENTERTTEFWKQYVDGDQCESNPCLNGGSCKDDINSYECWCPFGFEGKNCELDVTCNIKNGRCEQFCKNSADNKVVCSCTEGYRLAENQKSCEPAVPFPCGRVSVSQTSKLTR
Chain of Coagulation factor IX (Homo sapiens) (P00740 227-461 limits assumed): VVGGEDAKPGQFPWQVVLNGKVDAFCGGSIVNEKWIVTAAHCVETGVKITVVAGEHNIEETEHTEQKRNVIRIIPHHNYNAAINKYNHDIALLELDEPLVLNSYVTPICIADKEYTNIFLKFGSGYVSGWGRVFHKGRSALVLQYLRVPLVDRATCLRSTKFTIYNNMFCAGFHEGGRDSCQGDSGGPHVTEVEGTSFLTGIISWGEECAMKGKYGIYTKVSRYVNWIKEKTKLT

Homo sapiens = species: Homo sapiens; test: Inhibition of alpha chymotrypsin (unknown origin) at 25 uM using Ac-GRPY-pNA by spectrophotometry method
[3] = molecular target: Kallikrein-5 (Homo sapiens) (UniProt Q9Y337); test: Inhibition of KLK5 (unknown origin) expressed in Pichia pastoris X33 at 50 nM using Ac-YRSR-pNA by spectrophotometry method
Chain of Kallikrein-5 (Homo sapiens) (Q9Y337 whole entry): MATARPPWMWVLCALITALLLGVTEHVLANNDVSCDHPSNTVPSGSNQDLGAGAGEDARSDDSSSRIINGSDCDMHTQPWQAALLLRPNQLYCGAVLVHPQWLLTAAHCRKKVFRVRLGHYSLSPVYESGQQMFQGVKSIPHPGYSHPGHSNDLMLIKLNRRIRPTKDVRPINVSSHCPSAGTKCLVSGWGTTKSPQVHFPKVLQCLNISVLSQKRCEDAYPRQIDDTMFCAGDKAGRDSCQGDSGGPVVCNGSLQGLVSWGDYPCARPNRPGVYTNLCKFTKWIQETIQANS

Prothrombin = Prothrombin (Homo sapiens, UniProt P00734); test: Inhibition of alpha-thrombin (unknown origin) at 25 uM using Ac-ATPRpNA substrate by spectrophotometry method
Kallikrein-7 = Kallikrein-7 (Homo sapiens, UniProt P49862); test: Inhibition of KLK7 (unknown origin) expressed in Pichia pastoris X33 at 200 nM using KHLY-pNA substrate by spectrophotometry method
Chain of Kallikrein-7 (P49862 30-253 limits assumed): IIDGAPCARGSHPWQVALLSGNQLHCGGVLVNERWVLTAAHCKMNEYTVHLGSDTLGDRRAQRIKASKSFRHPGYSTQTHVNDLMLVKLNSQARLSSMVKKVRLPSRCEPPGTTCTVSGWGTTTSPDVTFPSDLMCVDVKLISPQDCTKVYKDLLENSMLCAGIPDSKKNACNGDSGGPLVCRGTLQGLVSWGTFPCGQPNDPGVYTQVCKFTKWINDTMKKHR

Plasminogen = Plasminogen (Homo sapiens, UniProt P00747); test: Inhibition of plasmin (unknown origin) at 50 uM using Ac-RM(O2)YRpNA substrate by spectrophotometry method
Chain of Plasminogen (P00747 97-580 limits assumed): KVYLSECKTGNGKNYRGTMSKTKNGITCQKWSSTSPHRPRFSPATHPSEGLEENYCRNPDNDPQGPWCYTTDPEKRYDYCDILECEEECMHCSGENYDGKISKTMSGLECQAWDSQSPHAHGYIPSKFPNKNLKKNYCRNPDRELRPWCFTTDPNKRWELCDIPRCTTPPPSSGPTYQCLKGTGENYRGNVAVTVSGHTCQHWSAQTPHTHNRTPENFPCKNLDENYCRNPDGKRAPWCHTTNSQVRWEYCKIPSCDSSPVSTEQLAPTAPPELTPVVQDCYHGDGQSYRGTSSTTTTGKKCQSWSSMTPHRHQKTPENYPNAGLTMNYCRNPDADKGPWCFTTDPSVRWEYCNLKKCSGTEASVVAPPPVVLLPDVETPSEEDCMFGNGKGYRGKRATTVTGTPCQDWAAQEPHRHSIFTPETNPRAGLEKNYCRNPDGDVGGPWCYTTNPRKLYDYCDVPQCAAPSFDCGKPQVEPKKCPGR
Chain of Plasminogen (P00747 581-810 limits assumed): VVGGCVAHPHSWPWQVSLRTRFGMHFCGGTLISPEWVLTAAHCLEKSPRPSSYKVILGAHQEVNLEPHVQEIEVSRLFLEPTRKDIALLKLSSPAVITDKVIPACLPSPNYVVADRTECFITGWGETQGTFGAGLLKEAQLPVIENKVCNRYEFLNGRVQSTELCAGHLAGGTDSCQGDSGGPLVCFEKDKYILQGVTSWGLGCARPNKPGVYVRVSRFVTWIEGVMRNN

[4] = molecular target: Coagulation factor XI (Homo sapiens) (UniProt P03951); test: Inhibition of factor 11a (unknown origin) at 10 uM using Bz-FVRpNA substrate by spectrophotometry method
Chain of Coagulation factor XI (Homo sapiens) (P03951 19-387 limits assumed): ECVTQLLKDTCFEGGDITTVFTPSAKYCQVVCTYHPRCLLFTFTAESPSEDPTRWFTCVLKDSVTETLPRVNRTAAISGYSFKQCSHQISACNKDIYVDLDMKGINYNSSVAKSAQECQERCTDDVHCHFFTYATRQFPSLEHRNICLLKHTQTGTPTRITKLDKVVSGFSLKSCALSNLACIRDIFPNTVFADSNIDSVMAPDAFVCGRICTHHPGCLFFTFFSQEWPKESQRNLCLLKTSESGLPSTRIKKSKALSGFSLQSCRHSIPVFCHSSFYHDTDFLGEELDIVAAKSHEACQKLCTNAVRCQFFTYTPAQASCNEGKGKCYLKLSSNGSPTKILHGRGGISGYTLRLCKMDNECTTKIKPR
Chain of Coagulation factor XI (Homo sapiens) (P03951 388-625 limits assumed): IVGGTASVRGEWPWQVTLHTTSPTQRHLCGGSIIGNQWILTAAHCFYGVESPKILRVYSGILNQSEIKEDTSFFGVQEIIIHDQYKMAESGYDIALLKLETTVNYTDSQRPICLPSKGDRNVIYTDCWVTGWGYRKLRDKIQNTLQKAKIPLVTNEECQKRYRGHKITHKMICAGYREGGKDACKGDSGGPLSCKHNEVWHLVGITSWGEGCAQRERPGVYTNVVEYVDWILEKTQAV

[5] = molecular target: T1, Coagulation factor XII (Homo sapiens) (UniProt P00748); test: Inhibition of factor 12a-alpha (unknown origin) at 10 uM using Ac-QRFRpNA substrate by spectrophotometry method
T1 sequence (whole entry): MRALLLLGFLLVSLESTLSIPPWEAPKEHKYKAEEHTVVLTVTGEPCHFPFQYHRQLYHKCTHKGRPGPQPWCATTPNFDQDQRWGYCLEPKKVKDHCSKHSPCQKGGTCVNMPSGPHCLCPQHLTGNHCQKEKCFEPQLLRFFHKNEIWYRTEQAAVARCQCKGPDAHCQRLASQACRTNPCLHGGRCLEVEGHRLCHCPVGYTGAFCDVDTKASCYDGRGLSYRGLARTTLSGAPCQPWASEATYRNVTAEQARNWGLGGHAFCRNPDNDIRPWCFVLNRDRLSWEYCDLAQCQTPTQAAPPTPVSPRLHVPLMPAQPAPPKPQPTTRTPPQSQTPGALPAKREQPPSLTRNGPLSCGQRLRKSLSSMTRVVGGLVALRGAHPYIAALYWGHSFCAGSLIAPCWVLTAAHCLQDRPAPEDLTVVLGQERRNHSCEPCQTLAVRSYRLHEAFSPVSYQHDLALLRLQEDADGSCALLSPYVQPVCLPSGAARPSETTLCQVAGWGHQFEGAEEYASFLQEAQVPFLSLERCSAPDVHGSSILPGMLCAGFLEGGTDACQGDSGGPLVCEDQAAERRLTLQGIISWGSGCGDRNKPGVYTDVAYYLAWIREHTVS

[6] = molecular target: T2, Suppressor of tumorigenicity 14 protein (Homo sapiens) (UniProt Q9Y5Y6); test: Inhibition of matriptase (unknown origin) at 10 uM using Ac-RQFRpNA substrate by spectrophotometry method
T2 sequence (whole entry): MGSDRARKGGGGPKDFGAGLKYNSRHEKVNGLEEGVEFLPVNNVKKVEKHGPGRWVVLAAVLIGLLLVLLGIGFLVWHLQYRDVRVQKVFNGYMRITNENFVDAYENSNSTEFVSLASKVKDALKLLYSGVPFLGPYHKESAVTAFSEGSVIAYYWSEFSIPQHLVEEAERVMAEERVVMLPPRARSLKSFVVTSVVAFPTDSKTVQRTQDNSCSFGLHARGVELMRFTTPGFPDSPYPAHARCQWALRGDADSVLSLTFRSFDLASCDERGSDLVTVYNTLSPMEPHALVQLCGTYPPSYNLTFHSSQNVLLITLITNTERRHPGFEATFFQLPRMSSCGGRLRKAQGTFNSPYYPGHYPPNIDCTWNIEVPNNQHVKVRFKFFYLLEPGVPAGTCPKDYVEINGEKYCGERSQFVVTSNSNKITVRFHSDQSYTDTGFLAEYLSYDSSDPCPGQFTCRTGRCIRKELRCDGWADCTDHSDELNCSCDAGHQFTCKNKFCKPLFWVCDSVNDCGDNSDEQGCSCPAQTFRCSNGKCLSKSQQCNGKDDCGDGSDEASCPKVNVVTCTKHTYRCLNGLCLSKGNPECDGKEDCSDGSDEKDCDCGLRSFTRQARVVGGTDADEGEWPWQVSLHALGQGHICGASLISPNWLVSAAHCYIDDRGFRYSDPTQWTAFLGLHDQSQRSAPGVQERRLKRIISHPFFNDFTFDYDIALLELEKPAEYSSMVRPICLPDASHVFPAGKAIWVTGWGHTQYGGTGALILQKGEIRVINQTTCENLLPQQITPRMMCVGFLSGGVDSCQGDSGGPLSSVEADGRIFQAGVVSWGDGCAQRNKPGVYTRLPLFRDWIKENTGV

Structure (SMILES) | inhibition [1] | inhibition (Kallikrein-4) | inhibition (Homo sapiens) | inhibition [3] | also measured
CC[C@H](C)[C@@H]1NC(=O)[C@@H]2CCCN2C(=O)[C@@H]2CCCN2C(=O)[C@H](CCC(=O)O)NC(=O)[C@H](CO)NC(=O)[C@H](CCCNC(=N)N)NC(=O)[C@H]([C@@H](C)O)NC(=O)[C@@H]2CSSC[C@H](NC1=O)C(=O)N[C@@H](CC(N)=O)C(=O)N1CCC[C@H]1C(=O)N[C@@H](CC(N)=O)C(=O)NCC(=O)N[C@@H]([C@@H](C)O)C(=O)N2 (cyclo(CNPNGTCTRSEPPI); disulfide 1-7) | inactive | inactive | – | – | inhibition [2]: 54%
CC[C@H](C)[C@@H]1NC(=O)[C@@H]2CCCN2C(=O)[C@@H]2CCCN2C(=O)[C@H](Cc2ccccc2)NC(=O)[C@H](CO)NC(=O)[C@H](CCCNC(=N)N)NC(=O)[C@H]([C@@H](C)O)NC(=O)[C@@H]2CSSC[C@H](NC1=O)C(=O)N[C@@H](CC(N)=O)C(=O)N1CCC[C@H]1C(=O)N[C@@H](CC(N)=O)C(=O)NCC(=O)N[C@@H]([C@@H](C)O)C(=O)N2 (cyclo(CNPNGTCTRSFPPI); disulfide 1-7) | – | Active | 52% | Active | inhibition (Prothrombin): 41%
CC[C@H](C)[C@@H]1NC(=O)[C@@H]2CCCN2C(=O)[C@@H]2CCCN2C(=O)CNC(=O)[C@H](CO)NC(=O)[C@H](CCCNC(=N)N)NC(=O)[C@H]([C@@H](C)O)NC(=O)[C@@H]2CSSC[C@H](NC1=O)C(=O)N[C@@H](CC(N)=O)C(=O)N1CCC[C@H]1C(=O)N[C@@H](CC(N)=O)C(=O)NCC(=O)N[C@@H]([C@@H](C)O)C(=O)N2 (cyclo(CNPNGTCTRSGPPI); disulfide 1-7) | inactive | – | – | – | –
CC[C@H](C)[C@@H]1NC(=O)[C@@H]2CCCN2C(=O)[C@@H]2CCCN2C(=O)[C@H](Cc2cnc[nH]2)NC(=O)[C@H](CO)NC(=O)[C@H](CCCNC(=N)N)NC(=O)[C@H]([C@@H](C)O)NC(=O)[C@@H]2CSSC[C@H](NC1=O)C(=O)N[C@@H](CC(N)=O)C(=O)N1CCC[C@H]1C(=O)N[C@@H](CC(N)=O)C(=O)NCC(=O)N[C@@H]([C@@H](C)O)C(=O)N2 (cyclo(CNPNGTCTRSHPPI); disulfide 1-7) | – | – | – | inactive | inhibition (Kallikrein-7): Active
CC[C@H](C)[C@@H]1NC(=O)[C@@H]2CCCN2C(=O)[C@@H]2CCCN2C(=O)[C@H](CCCCN)NC(=O)[C@H](CO)NC(=O)[C@H](CCCNC(=N)N)NC(=O)[C@H]([C@@H](C)O)NC(=O)[C@@H]2CSSC[C@H](NC1=O)C(=O)N[C@@H](CC(N)=O)C(=O)N1CCC[C@H]1C(=O)N[C@@H](CC(N)=O)C(=O)NCC(=O)N[C@@H]([C@@H](C)O)C(=O)N2 (cyclo(CNPNGTCTRSKPPI); disulfide 1-7) | – | – | – | – | inhibition (Plasminogen): 60%; inhibition [2]: 43%
CC[C@H](C)[C@@H]1NC(=O)[C@@H]2CCCN2C(=O)[C@@H]2CCCN2C(=O)[C@H](CC(C)C)NC(=O)[C@H](CO)NC(=O)[C@H](CCCNC(=N)N)NC(=O)[C@H]([C@@H](C)O)NC(=O)[C@@H]2CSSC[C@H](NC1=O)C(=O)N[C@@H](CC(N)=O)C(=O)N1CCC[C@H]1C(=O)N[C@@H](CC(N)=O)C(=O)NCC(=O)N[C@@H]([C@@H](C)O)C(=O)N2 (cyclo(CNPNGTCTRSLPPI); disulfide 1-7) | 52% | – | – | – | –
CC[C@H](C)[C@@H]1NC(=O)[C@@H]2CCCN2C(=O)[C@@H]2CCCN2C(=O)[C@@H]2CCCN2C(=O)[C@H](CO)NC(=O)[C@H](CCCNC(=N)N)NC(=O)[C@H]([C@@H](C)O)NC(=O)[C@@H]2CSSC[C@H](NC1=O)C(=O)N[C@@H](CC(N)=O)C(=O)N1CCC[C@H]1C(=O)N[C@@H](CC(N)=O)C(=O)NCC(=O)N[C@@H]([C@@H](C)O)C(=O)N2 (cyclo(CNPNGTCTRSPPPI); disulfide 1-7) | inactive | – | – | – | –
CC[C@H](C)[C@@H]1NC(=O)[C@@H]2CCCN2C(=O)[C@@H]2CCCN2C(=O)[C@H](CCC(N)=O)NC(=O)[C@H](CO)NC(=O)[C@H](CCCNC(=N)N)NC(=O)[C@H]([C@@H](C)O)NC(=O)[C@@H]2CSSC[C@H](NC1=O)C(=O)N[C@@H](CC(N)=O)C(=O)N1CCC[C@H]1C(=O)N[C@@H](CC(N)=O)C(=O)NCC(=O)N[C@@H]([C@@H](C)O)C(=O)N2 (cyclo(CNPNGTCTRSQPPI); disulfide 1-7) | – | – | – | inactive | inhibition (Kallikrein-7): Active
CC[C@H](C)[C@@H]1NC(=O)[C@@H]2CCCN2C(=O)[C@@H]2CCCN2C(=O)[C@H](CCCNC(=N)N)NC(=O)[C@H](CO)NC(=O)[C@H](CCCNC(=N)N)NC(=O)[C@H]([C@@H](C)O)NC(=O)[C@@H]2CSSC[C@H](NC1=O)C(=O)N[C@@H](CC(N)=O)C(=O)N1CCC[C@H]1C(=O)N[C@@H](CC(N)=O)C(=O)NCC(=O)N[C@@H]([C@@H](C)O)C(=O)N2 (cyclo(CNPNGTCTRSRPPI); disulfide 1-7) | 65% | Active | 57% | – | inhibition (Plasminogen): 23%; inhibition [2]: 43%
CC[C@H](C)[C@@H]1NC(=O)[C@@H]2CCCN2C(=O)[C@@H]2CCCN2C(=O)[C@H](CO)NC(=O)[C@H](CO)NC(=O)[C@H](CCCNC(=N)N)NC(=O)[C@H]([C@@H](C)O)NC(=O)[C@@H]2CSSC[C@H](NC1=O)C(=O)N[C@@H](CC(N)=O)C(=O)N1CCC[C@H]1C(=O)N[C@@H](CC(N)=O)C(=O)NCC(=O)N[C@@H]([C@@H](C)O)C(=O)N2 (cyclo(CNPNGTCTRSSPPI); disulfide 1-7) | – | – | – | inactive | inhibition (Kallikrein-7): Active
CC[C@H](C)[C@@H]1NC(=O)[C@@H]2CCCN2C(=O)[C@@H]2CCCN2C(=O)[C@H](C(C)C)NC(=O)[C@H](CO)NC(=O)[C@H](CCCNC(=N)N)NC(=O)[C@H]([C@@H](C)O)NC(=O)[C@@H]2CSSC[C@H](NC1=O)C(=O)N[C@@H](CC(N)=O)C(=O)N1CCC[C@H]1C(=O)N[C@@H](CC(N)=O)C(=O)NCC(=O)N[C@@H]([C@@H](C)O)C(=O)N2 (cyclo(CNPNGTCTRSVPPI); disulfide 1-7) | 75% | 92% | 76% | – | inhibition (Plasminogen): 25%; inhibition [4]: 65%; inhibition [5]: 80%; inhibition [6]: 54%
CC[C@H](C)[C@@H]1NC(=O)[C@@H]2CCCN2C(=O)[C@@H]2CCCN2C(=O)[C@H](Cc2c[nH]c3ccccc23)NC(=O)[C@H](CO)NC(=O)[C@H](CCCNC(=N)N)NC(=O)[C@H]([C@@H](C)O)NC(=O)[C@@H]2CSSC[C@H](NC1=O)C(=O)N[C@@H](CC(N)=O)C(=O)N1CCC[C@H]1C(=O)N[C@@H](CC(N)=O)C(=O)NCC(=O)N[C@@H]([C@@H](C)O)C(=O)N2 (cyclo(CNPNGTCTRSWPPI); disulfide 1-7) | – | – | 63% | Active | inhibition [5]: 87%
CC[C@H](C)[C@@H]1NC(=O)[C@@H]2CCCN2C(=O)[C@@H]2CCCN2C(=O)[C@H](Cc2ccc(-c3ccccc3)cc2)NC(=O)[C@H](CO)NC(=O)[C@H](CCCNC(=N)N)NC(=O)[C@H]([C@@H](C)O)NC(=O)[C@@H]2CSSC[C@H](NC1=O)C(=O)N[C@@H](CC(N)=O)C(=O)N1CCC[C@H]1C(=O)N[C@@H](CC(N)=O)C(=O)NCC(=O)N[C@@H]([C@@H](C)O)C(=O)N2 (cyclo([Bip]PPICNPNGTCTRS); disulfide 5-11) | – | Active | – | Active | inhibition [5]: 80%
